Data as given in patent US9730931B2, “Pyrimidine FGFR4 inhibitors” (priority 2013, dated 2017).
Read-outs that look alike come from different tables or passages of the source.

System: Hep3B xenograft
Assay type: in vivo

| Structure (SMILES) | Tolerability (health of animals) (30 mg/kg orally twice daily) | Comparative in vivo efficacy (60 mg/kg orally twice daily) | Tolerability (health of animals) (60 mg/kg orally twice daily) | Comparative in vivo efficacy (25, 37.5 or 50 mg/kg i.p. twice daily) |
| --- | --- | --- | --- | --- |
| CCN1CCN(c2ccc(Nc3cc(N(C)C(=O)Nc4c(Cl)c(OC)cc(OC)c4Cl)ncn3)cc2)CC1 [BGJ398] | did not exhibit poor health | efficacy comparable to compound 108 | terminated on Day 11 due to poor health of animals | – |
| C=CC(=O)Nc1cc(N2CCN(CC)CC2)ccc1Nc1cc(N(C)C(=O)Nc2c(Cl)c(OC)cc(OC)c2Cl)ncn1 [Example 108, N-(2-(6-(3-(2,6-Dichloro-3,5-dimethoxyphenyl)-1-methylureido)-pyrimidin-4-ylamino)-5-(4-ethylpiperazin-1-yl)-phenyl)-acrylamide] | – | – | – | more efficacious than BGJ398 at tolerable dosage levels |
